Test results taken from patent EP0183174A2, “Substituted phenoxy urea, processes for its preparation and herbicide containing it as active ingredient” (KUMIAI CHEMICAL INDUSTRY CO., LTD., priority 1984, dated 1986).

Experiments:
Design in all cases: key: 5: Withered; 4.5: Herbicidal effect (or phytotoxicity) in a range of 90 to 99%; 4: Herbicidal effect (or phytotoxicity) in a range of 80 to 89%; 3.5: Herbicidal effect (or phytotoxicity) in a range of 70 to 79%; 3: Herbicidal effect (or phytotoxicity) in a range of 60 to 69%; 2.5: Herbicidal effect (or phytotoxicity) in a range of 50 to 59%; 2: Herbicidal effect (or phytotoxicity) in a range of 40 to 49%; 1.5: Herbicidal effect (or phytotoxicity) in a range of 30 to 39%; 1: Herbicidal effect (or phytotoxicity) in a range of 20 to 29%; 0.5: Herbicidal effect (or phytotoxicity) in a range of 1 to 19%; 0: No herbicidal effect (or no phytotoxicity)
barnyardgrass [1] = assay: Test Example 4: herbicidal test by upland foliage treatment; format: in vivo, Echinochloa crus-galli L.
Description: (§1) Into each plastic pot of 120 cm^2, upland soil was filled, then seeds of barnyardgrass, crabgrass, redroot pigweed and rice flatsedge were sown, and they were grown in a greenhouse until barnyardgrass. reached 3-leaf stage. Each wettable powder prepared from the test compound in accordance with Formulation Example 3 was diluted with water to give the amount of the active ingredient corresponding to 4 kg/hectare, and the diluted solution was uniformly sprayed at an application rate of 1000 liter/hectare from the top of plants by means of a small size spray, when barnyardgrass was in the 3-leaf stage. They were grown in a greenhouse, and twenty days after the application, the herbicidal effects were evaluated in accordance with the standards as identified in Table 5.

monochoria = assay: Test Example 1: herbicidal test by water treatment in a paddy field; format: in vivo, Monochoria vaginalis Presl; conditions: evaluated thirty days after application
Description: (§2) Into each porcelain pot having a diameter of 10 cm, paddy soil was filled and puddled, and seeds of barnyardgrass (Echinochloa crus-galli L.), smallflower flatsedge, monochoria and Japanese bulrush were sown, and water was filled in a-depth of 3 cm. One day later, a predetermined amount of the wettable powder prepared in Formulation Example 3 and diluted with water was dropwise applied to the surface of the water (dose of the active ingredient: 4 kg/hectare). Thereafter, they were grown in a green house. Thirty days after the application, the herbicidal effects were evaluated in accordance with the standards as identified in Table 5.

smallflower flatsedge = assay: as above; format: in vivo, Cvperus diffcrmis L.; conditions: evaluated thirty days after application
Description: as §2

crabgrass = assay: Test Example 4: herbicidal test by upland foliage treatment; format: in vivo, Digitaria sanquinalis L.
Description: as §1

barnyardgrass [2] = assay: Test Example 3: herbicidal test by upland soil treatment; format: in vivo, Echinochloa crus-galli L.; conditions: evaluated twenty days after application
Source text: Into each plastic pot of 600 cm^2, upland soil was filled, then seeds of barnyardgrass, crabgrass, green foxtail, redroot pigweed, rice flatsedge, rice, wheat, maize, soybean, cotton and sugar beet were sown, and they were covered with soil. A predetermined amount of the wettable powder prepared from the test compound in accordance with Formulation Example 3 and diluted with water, was uniformly applied to the surface of the soil at an application rate of 1000 liter/hectare by means of a small size spray. They were grown in a greenhouse, and twenty days after the application, the herbicidal effects and phytotoxicity were evaluated in accordance with the standards as identified in Table 5.

[3] = upland foliage treatment, 4 kg/hectare active ingredient, sprayed at 1000 liter/hectare at barnyardgrass 3-leaf stage, evaluated twenty days after application
[4] = water treatment in paddy field pot, dose of active ingredient 4 kg/hectare
[5] = active ingredient 4 kg/hectare, foliage spray 1000 liter/hectare at 3-leaf stage of barnyardgrass, twenty days after application
[6] = dose of the active ingredient 4 kg/hectare, wettable powder applied to water surface one day after sowing

| Structure (SMILES) | Herbicidal effects Barnyard-grass (barnyardgrass [1]; [3]) | Herbicidal effects Monochoria (monochoria; [4]) | Herbicidal effects Small flower flatsedge (smallflower flatsedge; [4]) | Herbicidal effects Crabgrass (crabgrass; [3]) | Herbicidal effects Barnyard-grass (barnyardgrass [2]; Dose 1 kg/HA) | Herbicidal effects Barnyard-grass (barnyardgrass [2]; Dose 4 kg/HA) | Herbicidal effects Barnyard-grass (barnyardgrass [1]; [5]) | Herbicidal effects Monochoria (monochoria; [6]) | Herbicidal effects Small flower flatsedge (smallflower flatsedge; [6]) | Herbicidal effects Crabgrass (crabgrass; [5]) |
| --- | --- | --- | --- | --- | --- | --- | --- | --- | --- | --- |
| COCCNC(=O)NOc1cc(Cl)ccc1Cl [Compound No. 243] | 5 | 5 | 5 | 4 (Herbicidal effect (or phytotoxicity) in a range of 80 to 89%) | 5 | 5 |  |  |  |  |
| CN(C)C(=O)NOc1cc(Cl)ccc1Cl [Compound No. 1, 3-(2,5-Dichlorophenoxy)-1,1-dimethyl urea] |  |  |  |  | 5 | 5 | 4 (Herbicidal effect (or phytotoxicity) in a range of 80 to 89%) | 5 | 5 | 4 (Herbicidal effect (or phytotoxicity) in a range of 80 to 89%) |
| CC(C)N(C)C(=O)NOc1cc(Cl)cc(Cl)c1 [Compound No. 186, 3-(3,5-Dichlorophenoxy)-1-isopropyl-1-methyl urea trichloroacetate] |  | 5 | 5 |  | 5 | 5 | 5 |  |  | 5 |
| CON(C)C(=O)NOc1cc(Cl)ccc1Cl [Compound No. 242, 3-(2,5-Dichlorophenoxy)-1-methoxy-1-methyl urea] | 4 (Herbicidal effect (or phytotoxicity) in a range of 80 to 89%) | 5 | 5 | 5 | 5 | 5 |  |  |  |  |
